Earlier results as cited in patent publication US6869615B2, “Pharmaceutical formulations containing a non-steroidal antiinflammatory drug and a proton pump inhibitor” (Andrx Labs LLC, priority 2000, dated 2005).

Row | Compound | patients who experience gross bleeding and ulceration (chronic use, Langman et al, Lancet 1994) | patients with side effects that require cessation of medication (NSAIDs such as diclofenac)
1 | CN1C(C(=O)Nc2ccccn2)=C(O)c2ccccc2S1(=O)=O [piroxicam] | up to 4% | 
2 | O=C(O)Cc1ccccc1Nc1c(Cl)cccc1Cl [diclofenac] |  | about 20%
